Results from patent US20120172451A1, “CLEANING LIQUID” (priority 2010, published 2012).

Experiment: pH measurement
Type: physicochemical
Description: All measurements of pH and temperature mentioned in this specification were taken on a Hanna Instruments Ltd. device, with the model no. HI98127 (a waterproof pH and ° C./° F. probe). The measurements of pH and temperature could be taken on other generally available pH and temperature probes.

pH (50 g/l at 20° C.) | pH (1 mol/L at 20° C.) | Compound
1.8 | – | O=C(O)CC(O)(CC(=O)O)C(=O)O [citric acid]
– | around 1.08 | O=P(O)(O)O [phosphoric acid]
